Like-named read-outs stand apart in the source and are kept apart here.
Key:
HBV [1] = experiment: HepG2 cells transfected with linear full-length HBV DNA: capsid-associated HBV-DNA, cccDNA and pgRNA by real-time PCR; format: cell-based, hepatitis B virus genotype A
Excerpt: a) In HepG2 cells transfected with monomeric linear full length HBV pgRNA and HBV replication are dependent on cccDNA formation, chromatinization and transcription. b) Cytoplasmic HBV core particles were isolated from untreated and HAP12-treated cells at the indicated time points after transfection. Results are expressed as number of HBV DNA copies per transfected cells. c) cccDNA accumulation in untreated and HAP12-treated HepG2 cells transfected with wild type HBV genomes. qPCR analysis was performed using selective cccDNA primers to amplify cccDNA and beta-globin primers to normalize the DNA samples. Results are expressed as number of cccDNA copies per transfected cells. d) mRNAs were prepared from untreated and […] HepG2 cells transfected with wild type HBV genomes and harvested at the indicated times post-transfection. Specific primers were utilized to quantify the HBV pregenomic RNA and GAPDH amplification was used to normalize for equal loading of each RNA sample. All histograms show mean values from two independent experiments; bars indicate standard deviations (SD)
(§1) The activity of the hetero-aryl-dihydropyrimidine HAP12 compound on capsid-associated HBV-DNA (TaqMan real-time PCR), cccDNA (TaqMan real-time PCR) (Werle-Lapostolle, Gastroenterology 2004) and pgRNA levels (quantitative realtime PCR) (Belloni, PNAS 2009) were assessed in three in vitro HBV replication models:
a) HepG2 cells transfected with a linear full-length genotype A HBV DNA (Gunther, J Virol 1995; Pollicino, Gastroenterology 2006);

HBV [2] = experiment: HepG2 H1.3 HBV stable clone: capsid-associated HBV-DNA, cccDNA and pgRNA by real-time PCR; format: cell-based, hepatitis B virus genotype D
Excerpt: HAP12 treatment is started at day 10 of “differentiation” when HBV replication is high and the cccDNA pool is expanded. pgRNA is transcribed from both cccDNA and integrated HBV. b) Cytoplasmic HBV core particles, nuclear cccDNA (c) and total mRNAs (d) were isolated from untreated and HAP12-treated cells at the indicated time points. HBV-DNA, cccDNA and pgRNA results are expressed as in FIG. 2. Histograms show mean values from two independent experiments; bars indicate standard deviations (SD).
By treating the HepG2 H1.3 cells with HAP12 before the establishment of the cccDNA pool it was shown that cccDNA formation and accumulation […] by HAP12. Under these conditions the effect on HBV replication is maximal. a) HAP12 treatment is started at day 0 of “differentiation” when HBV replication and cccDNA levels are very low. b) Cytoplasmic HBV core particles, nuclear cccDNA (c) and total mRNAs (d) were isolated from untreated and HAP12-treated cells at the indicated time points. HBV-DNA, cccDNA and pgRNA results are expressed as in FIG. 2. Histograms show mean values from two independent experiments; bars indicate standard deviations (SD).
as §1
b) the HepG2 H1.3 genotype D HBV stable clone that accumulates cccDNA when cultured in “conditioned” medium at high confluence (Protzer, Gastroenterology 2007; Lucifora, J Hepatol 2011);

HBV [3] = experiment: AD38 stable cell line (tetracycline removal): cytoplasmic core particle HBV DNA and pgRNA; format: cell-based, hepatitis B virus genotype D; conditions: AD38 cells, treatment started at day 0 or day 6
Excerpt: FIG. 5 HAP12 targets cccDNA transcription in AD38 cells. […] The cccDNA pool is built up from the recycling of mature core particles to the nucleus after HBV replication is started from the pgRNA initially transcribed from the “tet-regulated” HBV integrated DNA (b). HAP12 treatment is started at day 0 (left panels) or day 6 (right panels). c) Cytoplasmic HBV core particles, and total mRNAs (d) were isolated from untreated and HAP12-treated cells at the indicated time points. HBV DNA, cccDNA and pgRNA results are expressed as in FIG. 2. All histograms show mean values from two independent experiments; bars indicate standard deviations (SD).
as §1
c) the AD38 cells are a stable HepG2-derived HBV genotype D clone that, upon tetracycline removal, expresses pgRNA,
assembles subviral particles in the cytoplasm, accumulates cccDNA in the nucleus and secretes HBV virions in the cell supernatant (Ladner, J Virol 1997).

[4] = system: HBc binding to the cccDNA; experiment: cccDNA ChIP assay in HepG2 H1.3 cells; format: cell-based, hepatitis B virus; conditions: 10 days treatment
Excerpt: FIG. 6 HAP12 interferes with HBc binding to the cccDNA. It is herein described that using a cccDNA ChIP assay (a), that HBc is recruited onto the cccDNA in HBV replicating HepG2 cells (b) and in the HepG2 H1.3 stable cell line. […] It is believe that this finding is in agreement with the observed inhibition of cccDNA transcription and pgRNA production in HAP12 treated cells. HAP12 treatment is started at day 10 of HepG2 H1.3 cells “differentiation” (see legend to FIG. 3). Cross-linked chromatin was prepared from untreated and HAP12-treated cells at TO (before treatment, 10 gg “differentiation”) and at T10 (10 days of exposure to HAP12, 20 gg from beginning of […], #H1905-15). ChIPped chromatin was analyzed by qPCR with HBV cccDNA selective primers. Results are expressed as % of input. Histograms show mean values from two independent experiments; bars indicate standard deviations (SD).
Recruitment of HBc and cccDNA bound histones modifications were assessed using the cccDNA ChIP assay (Pollicino, 2006)

HBV RNA = experiment: Transient transfection of Huh-7 cells, cytoplasmic RNA quantified by RT-PCR; format: cell-based, hepatitis B virus; conditions: for EC50: Hepatitis B virus
Protocol: FIG. 7 Several compounds were used to treat a transient transfection of Huh-7 cells (Huh-7 is a well differentiated hepatocyte derived cellular carcinoma cell line). Cytoplasmic RNA was harvested and quantified by RT-per. Treatment/dynamic range/ED50: DMSO/1.6/NA; AT130/25/0.5 μM; HAP13/20/5 μM; HAP12/36/0.5 μM.
(§2) CpAMs were used to treat a transient transfection of huh7 cells. Cytoplasmic RNA was harvested and quantified by RT-per. The transfection system is described by Lentz and Loeb (Lentz and Loeb (2010) J Virol Methods 169, 52-60.) Fresh medium with drug was added to cultured cells daily for four days at concentrations from 0.001 to 10 micromolar. The two points at 0.00001 are both controls where there was no drug and no DMSO. The controls and the DMSO-treated cells had similar amounts of RNA. […] (See FIG. 7)

HBV [5] = experiment: Suppression of secreted HBV DNA synthesis; format: cell-based; conditions: Hepatitis B virus
Protocol: Antiviral activity was measured using an inducible HBV expression system, AD38 cells. (Ladner, S. K. et al., Antimicrob Agents Chemother 41, 1715-20 (1997)). Initial experiments tested the activity of 10 μM HAP (percentage viral assembly at 24 hour). For active molecules, effective concentrations were determined for suppression of HBV production by 50% and by 90%; this value is reported in μM. Compound toxicity was tested in the parent cell line, HepG2. This is reported as the concentration required to suppress cell growth by 50%, CC50 (in μM) and as the ratio of CC50/EC50, also known as the therapeutic index. As a control and for comparison, the results for the nucleoside analog 3TC (lamivudine) also described.
as §2

[6] = HepG2 H1.3, treatment started at day 0, before establishment of the cccDNA pool
[7] = HepG2 H1.3, treatment started at day 10 of differentiation
[8] = Huh-7, 96 h, huh7 transient transfection, drug daily for four days, read-out: EC50 for RNA suppression
[9] = Huh-7 transient transfection, read-out: ED50 (cytoplasmic RNA)

For `COC(=O)C1=C(CN2CCOCC2)NC(c2ccccn2)=NC1c1ccc(F)cc1Cl` (centres unmarked) [HAP12], the “decrease in cccDNA levels” value (HBV [1]) was roughly 30%, the “suppression of HBV replication” value (HBV [1]; 72 and 96 hrs) was “complete suppression” and the “peak reduction of pgRNA transcription” value (HBV [1]; at 96 hours) was greater than 50%. For the same compound, the cccDNA formation/accumulation (HBV [2]; [6]) was “does not prevent”, the “effect on HBV replication” value (HBV [2]; [6]) was “maximal” and the “effect on HBV replication” value (HBV [2]; [7]) was “inhibitory effect”. For the same compound, the “effect on pgRNA transcription” value (HBV [2]; [7]) was “inhibitory effect”, the “effect on HBV replication” value (HBV [3]) was “inhibitory effect” and the “effect on pgRNA transcription” value (HBV [3]) was “inhibitory effect”. The “cccDNA HBc occupancy” value [4] was “strongly inhibited”, the “cccDNA-bound H3 histone acetylation” value [4] was “sharp decrease” and the EC50 (HBV RNA; [8]) was 500 nM. For the same compound, the EC50 (HBV RNA; [9]) was 500 nM, the “dynamic range (cytoplasmic RNA)” value (HBV RNA; Huh-7 transient transfection) was 36 and the EC50 (HBV [5]) was 12 nM.
With `COc1ccccc1/C(Br)=C(\NC(=O)c1ccc([N+](=O)[O-])cc1)C(=O)N1CCCCC1` [AT130, (E)-N-(1-Bromo-1-(2-methoxyphenyl)-3-oxo-3-(piperidin-1-yl)prop-1-en-2-yl)-4-nitrobenzamide] the EC50 (HBV RNA; [8]) was 500 nM, the EC50 (HBV RNA; [9]) was 500 nM and the “dynamic range (cytoplasmic RNA)” value (HBV RNA; Huh-7 transient transfection) was 25. It also gave an EC50 (HBV [5]) of 2400 nM.
In the case of `COC(=O)C1=C(CN2CCNCC2)NC(c2ccccn2)=NC1c1ccc(F)cc1Cl` (centres unmarked) [HAP13], the EC50 (HBV RNA; [8]) is reported as 5000 nM, the EC50 (HBV RNA; [9]) is reported as 5000 nM and the “dynamic range (cytoplasmic RNA)” value (HBV RNA; Huh-7 transient transfection) is reported as 20. The EC50 (HBV [5]) was 6100 nM.

From patent US20150292045A1, “ALTERNATIVE USES FOR HBV ASSEMBLY EFFECTORS” (INDIANA UNIVERSITY RESEARCH AND TECHNOLOGY CORPORATION, priority 2012, published 2015)
